Article PMC10704437, “Sterol-activated amyloid beta fibril formation” (The Journal of Biological Chemistry, 2023)
“And” between values parts separate entries of the source, which are not always exact repeats. Equal entries are not always repeated. Where two headings read alike, the source gives them in different places.

Legend:
Aβ42 [1] = target: T1, Aβ42 (Homo sapiens, UniProt P05067); experiment: Aβ42 fibril formation monitored by ThT fluorescence, NEF model fitting; format: biochemical; settings: for Nucleation rate constant, NEF model: NEF fit of fibril formation progress curves; for Nucleation rate constant, NEF model / Elongation rate constant, forward / Elongation rate constant, reverse / Fragmentation rate constant: Aβ42 1.0 μM, ligand at saturation; for Elongation rate constant, forward / Elongation rate constant, reverse / Fragmentation rate constant: NEF fit; for increase of nucleation rate constant relative to the unliganded peptide: from NEF nucleation rate constants
T1 construct: Small red spheres mark the Aβ42 peptide C-terminal residue, A42; purchased Sigma-Aldrich Corp
From the text: Reactions were initiated by the addition of ligand (at saturation) or buffer (control) to a fresh solution of Aβ42 and ThT (see Fig. 3 Legend). Such progress curves are often fit using a generalized sigmoidal function and compared on the basis of lag-time length and elongation-phase slope. Here, progress curves are fit numerically to the Nucleation-Elongation-Fragmentation (NEF) model ([51], [52]), using Copasi ([53]). Numerical modeling allows one to assess whether a particular mechanism adequately predicts experimental behavior and provides rate constants for the steps of the mechanism that can be compared across peptide•ligand combinations to identify where and to what extent ligands induce change.
Figure 3 Formation of CH•, CS•, and unliganded Aβ42fibrils.A, fibril formation. Fibril formation was monitored via the fluorescence increase (λex = 450 nm, λem = 482 nm) associated with the binding of ThT, which binds Aβ oligomers ≥5-mers. […] C. Progress curves were performed in triplicate, averaged, and fit numerically using the NEF polymerization model (see Results and discussion).
The NEF model assumes a slow, energetically unfavorable event generates a polymerization nucleus that rapidly adds monomers (at the elongation rate) to form oligomers. The reaction accelerates in a geometric fashion as oligomer fragmentation produces new nuclei. The tenets of the model are embodied in Equations (1), (2), (3), which form the basis of the Copasi model ([53]).(1) 2m⇆knucrevknucforn (2) m+n⇆kelrevkelforo+n (3) o→kfragn where m is monomer concentration, n is the concentration of surfaces capable of adding monomer, and o is the concentration of peptides that are in the interior of the polymer and thus cannot add monomers. knuc, kel, and kfrag are the nucleation, elongation, and fragmentation rate constants.
Fibril formation was monitored via the binding-induced change in ThT fluorescence (λex = 450 nm, λem = 482 nm) ([76]). […] C. Reagents (peptide, CH, CS, and ThT) were prepared immediately prior to use. CH and CS were solubilized in neat DMSO. Progress curves were determined in triplicate, and data were fit using the Nucleation-Fragmentation-Elongation (NEF) model (see Results and discussion).

[2] = parameters: method as in PMID 4525165; settings: reported in 1973; cited from earlier work
Aβ42 [3] = target: T1, Aβ42; experiment: Sterol binding to Aβ42, pre-steady-state stopped-flow fluorescence; settings: for kon: calculated by dividing koff by Kd; for koff: determined in DHE displacement studies, stopped-flow, 25 °C
Method: To establish the rates at which Aβ42•ligand complexes form and dissociate, the rate constants governing the binding reactions were determined. DHE binding was monitored in real time using a stopped-flow fluorimeter via binding-induced changes in DHE fluorescence. The reactions are pseudo first order in [ligand] and kobs was obtained by least-squares fitting progress curves to a single-exponential equation ([44], [45]). kobs values were determined (in triplicate) at a series of Aβ42 concentrations and the averaged values are plotted versus [Aβ42] in Figure 2B. kon and koff are given by the slope and intercept of the kobs-versus-[Aβ42] plot obtained by linear least-square fitting ([44], [45]). […] The rate constants are compiled in Table 1.
Figure 2 Sterol binding to Aβ42—pre-steady state studies.A, DHE binding. Reactions were monitored via binding induced changes in DHE fluorescence using a stopped-flow fluorimeter (λex = 325, λem > 400 nm). Fluorescence intensity, I, is reported relative to the intensity in the absence of ligand, Io. […] C was rapidly mixed (1:1, v/v) with a solution identical except that Aβ42 was replaced by DHE (40 nM, 2.7 × Kd). The bindingreaction curve shown is the average of five independent progress curves. The averaged curve was a least-squares fit to a single-exponential equation and the resulting best fit (indicated by the red line) yielded kobs. B, DHE kon and koff. kobs values obtained as in Panel A were determined in triplicate at varying Aβ42 concentrations and the averaged values are shown plotted versus [Aβ42]. kon and koff are given by the slope and intercept of a linear least-squares fit of the kobsversus [Aβ42] plot. C and D, CH and CS displacement reactions.
Pre-steady-state binding of sterols to Aβ42 was monitored via the binding-induced change in DHE fluorescence (λex = 325, λem > 400 nm) using an Applied Photophysics SX20 stopped-flow fluorimeter.
Three progress curves (each an average of five independently obtained curves) were collected at five separate Aꞵ42 concentrations. The observed rate constant (kobs) at a given [Aβ42] was obtained by fitting the average of the three curves to a single-exponential equation using Pro-K software ([75]). kon and koff were obtained from the slopes and intercepts predicted by linear least-squares analysis of kobs versus [Aβ42] plots.
C. […] Progress curves were determined in triplicate and koff was obtained by least-squares fitting the averaged curves to a single-exponential equation using Pro-K.

Aβ42 [4] = target: T1, Aβ42; experiment: Aβ42 fibril formation versus CS percentage (ThT); format: biochemical; settings: [CS]+[CH] 20 μM, Aβ42 1.0 μM
Method: To experimentally assess the potential impact of CS on fibril formation in vivo, fibril synthesis was monitored over a series of CS/CH ratios that span the physiological range.
Figure 8 Aβ42fibril formation versus CS percentage. Fibril formation was detected via binding-induced changes in ThT fluorescence (λex = 450 nm, λem = 482 nm). Reaction conditions: Aβ42 (1.0 μM), CS percent (as indicated), [CS] + [CH] (20 μM), ThT (30 μM), DMSO (0.5 % v/v), K2PO4 (50 mM), pH 7.4, 25 °C ± 2 deg. C. Progress curves were performed in triplicate and averaged data are shown. Lines passing through the data represent the behavior predicted by the NEF model using the Table 2 rate constants.

T1 sequence (P05067 672-713 limits assumed): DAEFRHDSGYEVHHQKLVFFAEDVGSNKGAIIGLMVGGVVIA

Row | SMILES | Nucleation rate constant, NEF model (Aβ42 [1]) | Elongation rate constant, forward (Aβ42 [1]) | Elongation rate constant, reverse (Aβ42 [1]) | Fragmentation rate constant (Aβ42 [1]) | increase of nucleation rate constant relative to the unliganded peptide (Aβ42 [1]) | critical micelle concentration (CMC) [2] [nM] | kon (Aβ42 [3]) [M⁻¹ s⁻¹] | koff (Aβ42 [3]) [s⁻¹] | Kd (Aβ42 [3]; ratio of rate constants, read-out: koff/kon) [nM] | CS/CH nucleation rate constant ratio, experimental (Aβ42 [1]; CS•Aβ42 versus CH•Aβ42, calculated using Table 2 nucleation rate constants) | Kd (Aβ42 [3]) [nM] | fibril formation lag-time (Aβ42 [4]; 0.1% CS) | fibril formation lag-time (Aβ42 [4]; 1% CS) | fibril formation lag-time (Aβ42 [4]; 10% CS)
1 | CC(C)CCC[C@@H](C)[C@H]1CC[C@H]2[C@@H]3CC=C4C[C@@H](O)CC[C@]4(C)[C@H]3CC[C@]12C [CH, cholesterol] | 6.9 (0.2) × 10^−14 nM^−1 s^−1 | 830 (20) μM^−1 s^−1 | 98 (1) s^−1 | 5.6 (0.3) × 10^−11 s^−1 | ~49 fold | 25 to 40 | 2.1e+07 | 2.5 | 120 | – | – | – | – | –
2 | CC(C)CCC[C@@H](C)[C@H]1CC[C@H]2[C@@H]3CC=C4C[C@@H](OS(=O)(=O)O)CC[C@]4(C)[C@H]3CC[C@]12C [CS, cholesterol 3-sulfate] | 1.8 (0.3) × 10^−11 nM^−1 s^−1 | 860 (60) μM^−1 s^−1 | 85 (1) s^−1 | 4.3 (0.7) × 10^−11 s^−1 | ~13,000 fold | – | 2.4e+07 | 0.88 | – | 261 fold and 260 fold | 36 | shortens by several hours | nearly halved | approaches that of pure CS
